No end group written: not given here.
Assays:
[1] = test system: memory CD8^+ T cells within PBMCs; assay type: cell-based, human
[2] = test system: CD8^+ T cells; assay type: cell-based, human

| Sequence | cross-reactivity of CD8^+ T cells after in vitro expansion with the peptide [1] | additional low avidity CD8^+ T cells detected by Q115E staining [2] | recognition of IBV-derived variant by IAV-expanded CD8^+ T cells [1] |
| --- | --- | --- | --- |
| VSDGGPNLY (Influenza A virus) [PB1591-599] | recognizing both IAV- and IBV-derived peptides |  |  |
| GILGFVFVL [M158-66, GILGFVFVL, reference compound] |  | could be detected |  |
| VADGGPNIY (Influenza B virus) [BPB1590-598, IBV variant of PB1591-599] | could not expand CD8^+ T cells |  | to a lesser extent |

— US11517617B2, “Methods and compositions for preventing influenza infection” (THE UNIVERSITY OF MELBOURNE, priority 2017, dated 2022)
